Laboratory results from patent publication US20260070945A1, “MACROCYCLIC IMMUNOMODULATORS” (Bristol-Myers Squibb Company, priority 2022, published 2026).
Where a SMILES comes first, the peptide text is derived from it. Bridges are numbered along the chain shown (N, C = ends). [ ]: non-standard residue; d: D form. The star is where a group is joined. ξ: configuration not given here. Phe(4-COOH) = N[C@@H](Cc1ccc(C(=O)O)cc1)C(=O)O; Bip = N[C@@H](Cc1ccc(-c2ccccc2)cc1)C(=O)O; Phe(3-Me) = Cc1cccc(C[C@H](N)C(=O)O)c1; Val(3-OH) = CC(C)(O)[C@H](N)C(=O)O; 4Pal = N[C@@H](Cc1ccncc1)C(=O)O; 3Thi = N[C@@H](Cc1ccsc1)C(=O)O; Cha = N[C@@H](CC1CCCCC1)C(=O)O; Ile(3ξ) = CCC(C)[C@H](N)C(=O)O; Thr(3ξ) = CC(O)[C@H](N)C(=O)O; Carboxymethyl = O=C(O)C*; NMeA = CN[C@@H](C)C(=O)O; Aun = NCCCCCCCCCCC(=O)O; Dab = NCC[C@H](N)C(=O)O; AEEA = NCCOCCOCC(=O)O

Target: T1, PD-1/PD-L1 interaction (PE-labeled human PD-L1-Ig binding to Jurkat cell line over-expressing human PD-1) (Homo sapiens, UniProt Q15116)
T1 construct: expressed in transfected cells; host or cells: Jurkat
Assay: Jurkat-PD-1 Cell Binding High-Content Screening Assay (CBA)
Conditions: PE-labeled PD-L1-Ig 20 nM final, Jurkat-hPD-1 cells; read-out: Jurkat HPD1 PDL1 IC50
Summary of the method: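 In this imaging assay, cells in 10% FCS medium see compound for 2 h at 37 °C and then labeled ligand at 20 nM final for 1 h. Paraformaldehyde fixation, Hoechst 33342 staining and dPBS washes precede image capture.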

T1 sequence (Q15116 25-288): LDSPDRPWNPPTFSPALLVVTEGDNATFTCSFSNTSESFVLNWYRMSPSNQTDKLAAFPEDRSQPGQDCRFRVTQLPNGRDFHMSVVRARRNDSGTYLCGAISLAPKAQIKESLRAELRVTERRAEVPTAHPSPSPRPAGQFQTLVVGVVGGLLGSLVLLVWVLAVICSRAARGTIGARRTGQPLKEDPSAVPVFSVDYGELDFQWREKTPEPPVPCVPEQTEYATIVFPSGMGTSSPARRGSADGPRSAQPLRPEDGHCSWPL

| SMILES | IC50 |
| --- | --- |
| Cc1cccc(C[C@@H]2NC(=O)[C@H](CC(=O)O)NC(=O)[C@H](Cc3ccc(OCC(=O)O)cc3)NC(=O)[C@H](Cc3ccncc3)NC(=O)CSC[C@@H](C(=O)N[C@@H](CCN)C(=O)NCCOCCOCC(=O)NCCOCCOCC(=O)NCCCCCCCCCCC(=O)O)NC(=O)[C@H](CCC(=O)O)NC(=O)[C@H](C(C)C)NC(=O)[C@H](CC3CCCCC3)NC(=O)[C@H](CCN)NC(=O)[C@@H](CC(C)C)NC(=O)[C@H](C)N(C)C(=O)[C@H](Cc3ccc(C(=O)O)cc3)NC(=O)[C@H](Cc3ccc(-c4ccccc4)cc3)NC(=O)[C@H](Cc3ccc(C(=O)O)cc3)NC2=O)c1 [Example 2501] ({CH2CO}-[4Pal]Y(Carboxymethyl)D[Phe(3-Me)][Phe(4-COOH)][Bip][Phe(4-COOH)][NMeA][dL][Dab][Cha]VEC[Dab][AEEA][AEEA][Aun]-OH; thioether N-14) | 253 nM |
| CCC(C)[C@@H]1NC(=O)[C@H](Cc2ccc(-c3ccccc3)cc2)NC(=O)[C@H](CC(C)C)NC(=O)[C@H](Cc2c[nH]c3ccccc23)NC(=O)[C@H](CC(=O)O)NC(=O)[C@H](Cc2ccc(OCC(=O)O)cc2)NC(=O)[C@H](Cc2ccncc2)NC(=O)CSC[C@@H](C(=O)N[C@@H](CCN)C(=O)NCCOCCOCC(=O)NCCCCCCCCCCC(=O)O)NC(=O)[C@H](CO)NC(=O)[C@H](C(C)(C)O)NC(=O)[C@H](CC2CCCCC2)NC(=O)[C@H](CCN)NC(=O)[C@@H](CC(C)C)NC(=O)[C@H](C)N(C)C1=O (stereo partly drawn) [Example 2502] ({CH2CO}-[4Pal]Y(Carboxymethyl)DWL[Bip][Ile(3ξ)][NMeA][dL][Dab][Cha][Val(3-OH)]SC[Dab][AEEA][Aun]-OH; thioether N-14) | 148 nM |
| CC(=O)NCCCC[C@@H]1NC(=O)[C@H](C(C)C)NC(=O)[C@H](CC2CCCCC2)NC(=O)[C@H](CCN)NC(=O)[C@@H](CC(C)C)NC(=O)[C@H](C)N(C)C(=O)[C@H](CCC(N)=O)NC(=O)[C@H](Cc2ccc(-c3ccccc3)cc2)NC(=O)[C@H](CC(C)C)NC(=O)[C@H](Cc2c[nH]c3ccccc23)NC(=O)[C@H](CC(=O)O)NC(=O)[C@H](Cc2ccc(OCC(=O)O)cc2)NC(=O)[C@H](Cc2ccsc2)NC(=O)CSC[C@@H](C(=O)N[C@@H](CCN)C(=O)NCCOCCOCC(=O)NCCCCCCCCCCC(=O)O)NC1=O [Example 2503] ({CH2CO}-[3Thi]Y(Carboxymethyl)DWL[Bip]Q[NMeA][dL][Dab][Cha]VK(Ac)C[Dab][AEEA][Aun]-OH; thioether N-14) | 12.2 nM |
| CC(C)C[C@@H]1NC(=O)[C@H](Cc2c[nH]c3ccccc23)NC(=O)[C@H](CC(=O)O)NC(=O)[C@H](Cc2ccc(OCC(=O)O)cc2)NC(=O)[C@H](Cc2ccsc2)NC(=O)CSC[C@@H](C(=O)N[C@@H](CCN)C(=O)NCCOCCOCC(=O)NCCCCCCCCCCC(=O)O)NC(=O)[C@H](CCC(=O)O)NC(=O)[C@H](C(C)(C)O)NC(=O)[C@H](CC2CCCCC2)NC(=O)[C@H](CCN)NC(=O)[C@@H](CC(C)C)NC(=O)[C@H](C)N(C)C(=O)[C@H](CCC(N)=O)NC(=O)[C@H](Cc2ccc(-c3ccccc3)cc2)NC1=O [Example 2504] ({CH2CO}-[3Thi]Y(Carboxymethyl)DWL[Bip]Q[NMeA][dL][Dab][Cha][Val(3-OH)]EC[Dab][AEEA][Aun]-OH; thioether N-14) | 13.2 nM |
| Cc1cccc(C[C@@H]2NC(=O)[C@H](CC(=O)O)NC(=O)[C@H](Cc3ccc(C(=O)O)cc3)NC(=O)[C@H](Cc3ccsc3)NC(=O)CSC[C@@H](C(=O)N[C@@H](CCN)C(=O)NCCOCCOCC(=O)NCCCCCCCCCCC(=O)O)NC(=O)[C@H](CCC(=O)O)NC(=O)[C@H](C(C)(C)O)NC(=O)[C@H](CC3CCCCC3)NC(=O)[C@H](CCN)NC(=O)[C@@H](CC(C)C)NC(=O)[C@H](C)N(C)C(=O)[C@H](Cc3ccc(OCC(=O)O)cc3)NC(=O)[C@H](Cc3ccc(-c4ccccc4)cc3)NC(=O)[C@H](Cc3ccc(OCC(=O)O)cc3)NC2=O)c1 [Example 2505] ({CH2CO}-[3Thi][Phe(4-COOH)]D[Phe(3-Me)]Y(Carboxymethyl)[Bip]Y(Carboxymethyl)[NMeA][dL][Dab][Cha][Val(3-OH)]EC[Dab][AEEA][Aun]-OH; thioether N-14) | 12.9 nM |
| Cc1cccc(C[C@@H]2NC(=O)[C@H](CC(=O)O)NC(=O)[C@H](Cc3ccc(C(=O)O)cc3)NC(=O)[C@H](Cc3ccsc3)NC(=O)CSC[C@@H](C(=O)N[C@@H](CCN)C(=O)NCCOCCOCC(=O)NCCCCCCCCCCC(=O)O)NC(=O)[C@H](CCC(=O)O)NC(=O)[C@H](C(C)(C)O)NC(=O)[C@H](CC3CCCCC3)NC(=O)[C@H](CCN)NC(=O)[C@@H](CC(C)C)NC(=O)[C@H](C)N(C)C(=O)[C@H](Cc3ccc(C(=O)O)cc3)NC(=O)[C@H](Cc3ccc(-c4ccccc4)cc3)NC(=O)[C@H](Cc3ccc(C(=O)O)cc3)NC2=O)c1 [Example 2506] ({CH2CO}-[3Thi][Phe(4-COOH)]D[Phe(3-Me)][Phe(4-COOH)][Bip][Phe(4-COOH)][NMeA][dL][Dab][Cha][Val(3-OH)]EC[Dab][AEEA][Aun]-OH; thioether N-14) | 10.3 nM |
| Cc1cccc(C[C@@H]2NC(=O)[C@H](CC(=O)O)NC(=O)[C@H](Cc3ccc(OCC(=O)O)cc3)NC(=O)[C@H](C(C)O)NC(=O)CSC[C@@H](C(=O)N[C@@H](CO)C(=O)NCCOCCOCC(=O)NCCCCCCCCCCC(=O)O)NC(=O)[C@H](CCC(=O)O)NC(=O)[C@H](C(C)(C)O)NC(=O)[C@H](CC3CCCCC3)NC(=O)[C@H](CCN)NC(=O)[C@@H](CC(C)C)NC(=O)[C@H](C)N(C)C(=O)[C@H](Cc3ccc(OCC(=O)O)cc3)NC(=O)[C@H](Cc3ccc(-c4ccccc4)cc3)NC(=O)[C@H](Cc3ccc(OCC(=O)O)cc3)NC2=O)c1 (stereo partly drawn) [Example 2507] ({CH2CO}-[Thr(3ξ)]Y(Carboxymethyl)D[Phe(3-Me)]Y(Carboxymethyl)[Bip]Y(Carboxymethyl)[NMeA][dL][Dab][Cha][Val(3-OH)]ECS[AEEA][Aun]-OH; thioether N-14) | 393 nM |
| Cc1cccc(C[C@@H]2NC(=O)[C@H](CC(=O)O)NC(=O)[C@H](Cc3ccc(OCC(=O)O)cc3)NC(=O)[C@H](C(C)O)NC(=O)CSC[C@@H](C(=O)N[C@@H](CCN)C(=O)NCCOCCOCC(=O)NCCCCCCCCCCC(=O)O)NC(=O)[C@H](CCC(=O)O)NC(=O)[C@H](C(C)(C)O)NC(=O)[C@H](CC3CCCCC3)NC(=O)[C@H](CCN)NC(=O)[C@@H](CC(C)C)NC(=O)[C@H](C)N(C)C(=O)[C@H](Cc3ccc(OCC(=O)O)cc3)NC(=O)[C@H](Cc3ccc(-c4ccccc4)cc3)NC(=O)[C@H](Cc3ccc(OCC(=O)O)cc3)NC2=O)c1 (stereo partly drawn) [Example 2508] ({CH2CO}-[Thr(3ξ)]Y(Carboxymethyl)D[Phe(3-Me)]Y(Carboxymethyl)[Bip]Y(Carboxymethyl)[NMeA][dL][Dab][Cha][Val(3-OH)]EC[Dab][AEEA][Aun]-OH; thioether N-14) | 40.6 nM |
| CCC(C)[C@@H]1NC(=O)[C@H](Cc2ccc(-c3ccccc3)cc2)NC(=O)[C@H](CC(C)C)NC(=O)[C@H](Cc2c[nH]c3ccccc23)NC(=O)[C@H](CC(=O)O)NC(=O)[C@H](Cc2ccc(OCC(=O)O)cc2)NC(=O)[C@H](C(C)O)NC(=O)CSC[C@@H](C(=O)N[C@@H](CCN)C(=O)NCCOCCOCC(=O)NCCCCCCCCCCC(=O)O)NC(=O)[C@H](CCC(=O)O)NC(=O)[C@H](C(C)(C)O)NC(=O)[C@H](CC2CCCCC2)NC(=O)[C@H](CCN)NC(=O)[C@@H](CC(C)C)NC(=O)[C@H](C)N(C)C1=O (stereo partly drawn) [Example 2509] ({CH2CO}-[Thr(3ξ)]Y(Carboxymethyl)DWL[Bip][Ile(3ξ)][NMeA][dL][Dab][Cha][Val(3-OH)]EC[Dab][AEEA][Aun]-OH; thioether N-14) | 13 nM |
